Data as given in patent publication US5739117A, “Agent for improving cerebral metabolism including glucose ester derivatives” (Fujimoto Pharmaceutical Co., Ltd., priority 1993, dated 1998).

How the values were obtained:
[1] = Kinetic changes in radioactivities in the blood and the cerebral tissue after intravenous injection; assay type: in vivo, mice (ddy strain); settings: mice, i.v. tail vein
Description: Normal male mice of the ddy strain at 6 weeks of age were injected intravenously through tail vein with 0.05 ml of […] ^18 F in DMSO solution.
Kinetic changes in radioactivities in the blood and the cerebral tissue of the mice injected with ^18 F-AFDG.

[2] = Intra-cerebral and blood concentrations of ^18 F-AFDG and its metabolites after intravenous injection; assay type: in vivo; settings: mice
Description: Mice were given an intravenous injection of 0.05 ml solution of 0.5 mM ^18 F-AFD in DMSO.

| SMILES | time up to which levels of radioactivity in the cerebral tissue increased ([1]; 0.05 ml in DMSO, FIG. 1) | blood radioactivity levels ([1]; 0.05 ml in DMSO, following administration) | radioactivity in the cerebral tissue after administration ([1]; 0.05 ml in DMSO, immediately after administration) | radioactivity in the cerebral tissue compared with blood ([1]; at 10 minutes of administration and thereafter) | proportion that reached the cerebral tissue ([2]; i.v., 0.05 ml of 0.5 mM in DMSO, within 0.5 minute following administration) | extent metabolized into ^18 F-FDG-6-phosphate ([2]; i.v., cerebral tissue, at 180 minutes) | time of emergence of intra-cerebral metabolites ([2]; i.v. ^18 F-AFDG, 0.5 mM in DMSO, cerebral tissue) | concentration in the cerebral tissue over time ([2]; i.v. ^18 F-AFDG, after 0.5 minute, FIG. 3) | proportion among ^18 F-AFDG and metabolites in the cerebral tissue ([2]; i.v. ^18 F-AFDG, at 5, 60 and 180 minutes, compared with blood, FIGS. 4 and 5) |
| --- | --- | --- | --- | --- | --- | --- | --- | --- | --- |
| CC(=O)OC[C@H]1OC(OC(C)=O)[C@H]([18F])[C@@H](OC(C)=O)[C@@H]1OC(C)=O (stereo partly drawn) [^18 F-AFDG, 1,3,4,6-tetra-O-acetyl-2-^18 F-D-glucose] | 30 min | decreased consistently following administration | could be detected in the cerebral tissue immediately after administration | higher in the cerebral tissue than in the blood | approximately 40% | the entire ^18 F-AFDG was found to be metabolized into ^18 F-FDG-6-phosphate |  |  |  |
| O=P(O)(O)OC[C@H]1OC(O)[C@H]([18F])[C@@H](O)[C@@H]1O (stereo partly drawn) [^18 F-FDG-6-phosphate] |  |  |  |  |  |  | ≤ 0.5 min | raised markedly | highest proportion in the cerebral tissue |
